Where “and” joins values, the source holds several entries; their conditions need not be identical. Equal values may be shown once.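 Tested at 5 concentrations; 48 h exposure; 96-well plates; endpoints linearly interpolated, else capped at highest concentration. GI50 = concentration required for 50% inhibition of growth. TGI is the concentration that stops growth completely.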
Experiments:
Test in all cases: NCI-60 cell line screen, 48 h
[1] = system: HCT-116 colon
[2] = system: HOP-92 NSCLC
[3] = system: KM12 colon
[4] = system: OVCAR-3 ovarian
[5] = system: OVCAR-4 ovarian
[6] = system: SF-539 CNS
[7] = system: SK-MEL-5 melanoma
[8] = system: U251 CNS
[9] = system: UACC-257 melanoma
[10] = system: NCI-H522 lung

SMILES | GI50 [1] [µM] | TGI [1] | GI50 [2] [µM] | TGI [2] [µM] | GI50 [3] [µM] | TGI [3] | GI50 [4] [µM] | TGI [4] | GI50 [5] [µM] | TGI [5] [µM] | GI50 [6] [µM] | TGI [6] [µM] | GI50 [7] [µM] | TGI [7] | GI50 [8] [µM] | TGI [8] [µM] | GI50 [9] [µM] | TGI [9] | GI50 [10] [µM] | TGI [10]
CCCCN(CCCC)CCCn1c(=O)c2c3ccccc3n(C)c2n2nnc(-c3ccccc3)c12 | 18.4 | > 100 µM | 18.5 | 44.7 | 34.3 | > 100 µM | 48.6 | > 100 µM | 17.6 | 83.9 | 65.3 | > 100 | 31.9 | > 100 µM | 32.9 | > 100 | 28.7 | 82.5 µM |  | 
C=C(CN1CCN(c2cccc(C(F)(F)F)n2)CC1)c1ccc(C(=S)Nc2ccccc2N)cc1 | 2.76 | 19.8 µM |  |  | 4.04 | > 100 µM | 4.34 | > 100 µM | 3.01 | > 100 | 5.72 | > 100 | 1.46 | 3.17 µM | 3.77 | 38.5 | 3.33 | 18.8 µM | 3.01 | 31.4 µM
COc1cccc2c1c(C1=C(c3cn(C)c4ccccc34)C(=O)NC1=O)cn2C | > 25 | > 25 µM |  |  | > 25 | > 25 µM | > 25 | > 25 µM | > 25 | > 25 | > 25 | > 25 | > 25 | > 25 µM | > 25 | > 25 | > 25 | > 25 µM | > 25 | > 25 µM
O=C(/C(=C/c1ccc([N+](=O)[O-])cc1)SCc1ccc(F)cc1)c1ccc(Cl)cc1 |  |  | 19.2 | > 100 | 2.81 | 8.63 µM | 3.06 | 10.6 µM | 3.12 | 13 | 15.5 | 33.2 | 4.33 | 15.2 µM | 2.07 | 4.02 | 16 | 34.2 µM | 1.88 | 4.44 µM
COC(=O)c1ccc(Cl)cc1NC(=O)C1CCCCC1 |  | > 100 µM |  | > 100 |  | > 100 µM |  | > 100 µM |  | > 100 |  | > 100 |  |  |  | > 100 |  | > 100 µM |  | > 100 µM
C/C(=C(\c1ccc(OCCN2CCCCCC2)cc1)c1ccc(OC(=O)Cc2ccccc2)cc1)c1ccc(Cl)cc1 | 1.32 | 3.47 µM |  |  | 2.72 | 5.77 µM | 2.75 | 5.22 µM | 2.82 | 7.05 | 2.36 | 4.82 | 2.36 | 4.58 µM | 2.59 | 5.03 | 3.25 | 6.22 µM | 3.6 | 6.87 µM
CN(C)CCOC(c1ccccc1)c1ccccc1 | 32.1 | 48.7 µM and > 100 µM |  | 85.7 | 32.8 | 68.1 µM and > 100 µM | 36 | 51.1 µM and > 100 µM |  | > 100 |  |  | 15.7 | 28.2 µM and > 100 µM |  |  | 14.2 | 19.8 µM and > 100 µM | 25.6 | 44.3 µM and > 100 µM

From PubChem BioAssay (NCI)
